This assay deals with HLA-B*14:02 (Homo sapiens, UniProt P01889, A93T/A95T/C349S/D138N/D201E/E187T/E204Q/H137Y/K202T/Q94N/R155S/R180L/S121W/S35A/Y140F/Y195H/Y91C). The assay is described as follows: REVEAL MHC-peptide binding assay (ProImmune). Conditions: for Binding Test (binding activity as percentage of positive control): relative to a known high-affinity T cell epitope for HLA-B*14:02, synthesized peptides, standard error 3 percentage points; for HLA binding activity (in words): REVEAL MHC-peptide binding assay, versus positive control. From the text:
To test whether outlier peptides identified by unsupervised motif clustering are false positives or true ligands with very weak binding affinity, we performed an HLA binding assay on 59 newly identified antigens for HLA-B*14:02 ( Supplementary Table 3 , 13 outliers and 46 non-outlier peptides). […] For LPFCRPGPEGQL, this peptide was likely called an outlier because the middle arginine residue was not predicted to take part in the 9-mer binding motif by NetMHCpan (the predicted core motif was LPFGPEGQL).
Figure 3 HLA binding assay for HLA-B*14:02. Peptide synthesis and binding assay were performed by ProImmune, Ltd. (see Methods). (A) Distributions of binding scores, measured as the percentages of the binding activity compared to a positive control, for clustered peptides (n = 46) and outlier peptides (n = 13). (B) Comparison of predicted percentage ranks of eluted ligand (% rank) and binding scores. The orange and red dashed lines indicate the 2% rank and 0.5% rank thresholds for weak and strong binders, respectively.
The binding activities of selected 59 newly identified candidate antigens for HLA-B*14:02 ( Supplementary Table 3 ) were assessed using the REVEAL MHC-peptide binding assay provided by ProImmune, Ltd. (Oxford, UK). Peptides were synthesized and quality checked using MALDI-TOF mass spectrometry by ProImmune, Ltd. (Oxford, UK). Binding activities were reported as percentage relative to the affinity of a positive control (a known high-affinity T cell epitope for HLA-B*14:02). According to the experiment report provided by the company, the standard error of the reported affinities is 3 percentage points.

For “QQLCHQTL [candidate antigen for HLA-B*14:02, non-outlier]”, the “Binding Test (binding activity as percentage of positive control)” value came to 56.8%. The same measure, in the same setting: then “LNQRAQAVL [candidate antigen for HLA-B*14:02, outlier]”, with 3.1%; and “QQILRDAL [candidate antigen for HLA-B*14:02, non-outlier]”, with 56.2%; and “QQFAHPPL [candidate antigen for HLA-B*14:02, non-outlier]”, with 82.8%. On the same count and under the same terms, for “DRYLPGETF [candidate antigen for HLA-B*14:02, non-outlier]” the value was 61.4%; for “LPIIHCTL [candidate antigen for HLA-B*14:02, non-outlier]”, 56.4%; for “ESGPSIVHRKCF [candidate antigen for HLA-B*14:02, outlier]”, 0.1%. On the same count and under the same terms, for “GLGILDPVLL [candidate antigen for HLA-B*14:02, non-outlier]” the value was 0.1%. Regarding “REQFSSRGS [candidate antigen for HLA-B*14:02, outlier]”, the “Binding Test (binding activity as percentage of positive control)” value was 0%. Same read-out and setting: then “QTWWHGVL [candidate antigen for HLA-B*14:02, non-outlier]”, with 74.6%; and “QGLSILLPKI [candidate antigen for HLA-B*14:02, outlier]”, with 0%. On the same count and under the same terms, for “QEVKQGKLL [candidate antigen for HLA-B*14:02, non-outlier]” the value was 0.1%; for “SPTCHACL [candidate antigen for HLA-B*14:02, non-outlier]”, 19.8%; for “TYDDATKTF [candidate antigen for HLA-B*14:02, outlier]”, 0.1%. As to “DQFLKICL [candidate antigen for HLA-B*14:02, non-outlier]”, the “Binding Test (binding activity as percentage of positive control)” value was determined as 62.6%. As to “LPFCHSEL [candidate antigen for HLA-B*14:02, non-outlier]”, the “Binding Test (binding activity as percentage of positive control)” value amounted to 60.2%. On the same count and under the same terms, then “CRFEGQFSI [candidate antigen for HLA-B*14:02, non-outlier]”, with 63.5%; and “CQVTHISL [candidate antigen for HLA-B*14:02, non-outlier]”, with 56.7%; and “CDFVHQAL [candidate antigen for HLA-B*14:02, non-outlier]”, with 41.7%. The same measure, in the same setting: for “LSSLSLPILI [candidate antigen for HLA-B*14:02, outlier]” the value was 0.1%; for “HPASHPEL [candidate antigen for HLA-B*14:02, non-outlier]”, 29.9%; for “AVSMIPPLLL [candidate antigen for HLA-B*14:02, outlier]”, 0.2%. Still for that read-out and setting: for “HQITHQAM [candidate antigen for HLA-B*14:02, non-outlier]” the value was 52.4%; for “QAYMNQRKL [candidate antigen for HLA-B*14:02, non-outlier]”, 0.2%.

With “CHIYHHAL [candidate antigen for HLA-B*14:02, non-outlier]”, the “Binding Test (binding activity as percentage of positive control)” value stood at 55.5%.

Turning to “LNVLHLDT [candidate antigen for HLA-B*14:02, non-outlier]”, the “Binding Test (binding activity as percentage of positive control)” value turned out to be 5%. The same measure, in the same setting: for “LLSPQQTI [candidate antigen for HLA-B*14:02, non-outlier]” the value was 0.8%; for “QPAEHLQL [candidate antigen for HLA-B*14:02, non-outlier]”, 49.4%; for “LGFTHHCL [candidate antigen for HLA-B*14:02, non-outlier]”, 47.6%. Still for that read-out and setting: for “CVTIHEAL [candidate antigen for HLA-B*14:02, non-outlier]” the value was 32.1%; for “TYDDATKTFTVTE [candidate antigen for HLA-B*14:02, non-outlier]”, 0%; for “AAPARVSVA [candidate antigen for HLA-B*14:02, outlier]”, 0.2%. On the same count and under the same terms, then “LTGDIHAITAA [candidate antigen for HLA-B*14:02, outlier]”, with 0.2%.

On to “YQILHECL [candidate antigen for HLA-B*14:02, non-outlier]”, for which the “Binding Test (binding activity as percentage of positive control)” value is given as 50.1%. “DQVGGLGR [candidate antigen for HLA-B*14:02, non-outlier]”: the “Binding Test (binding activity as percentage of positive control)” value is reported as 0.2%. The same measure, in the same setting: for “TRIEKRIVI [candidate antigen for HLA-B*14:02, non-outlier]” the value was 54.9%; for “LSYVSIMAAI [candidate antigen for HLA-B*14:02, non-outlier]”, 0.2%. Same read-out and setting: then “PLGMNQLQAL [candidate antigen for HLA-B*14:02, non-outlier]”, with 0.3%. With “NQFQRQAAV [candidate antigen for HLA-B*14:02, non-outlier]”, the “Binding Test (binding activity as percentage of positive control)” value is given as 63.6%. Still for that read-out and setting: for “YATLHHVI [candidate antigen for HLA-B*14:02, non-outlier]” the value was 42.2%. Consider “DQYKRETI [candidate antigen for HLA-B*14:02, non-outlier]”, for which the “Binding Test (binding activity as percentage of positive control)” value came out at 33.9%. On to “LPFCRPGPEGQL [candidate antigen for HLA-B*14:02, outlier]”, for which the “HLA binding activity (in words)” value is given as “high binding affinity” and the “Binding Test (binding activity as percentage of positive control)” value is reported as 75.9%. Take “CEVTHQGL [candidate antigen for HLA-B*14:02, non-outlier]”: the “Binding Test (binding activity as percentage of positive control)” value stood at 25.4%. On the same count and under the same terms, for “SCRVHKII [candidate antigen for HLA-B*14:02, non-outlier]” the value was 8.3%. Regarding “LRNGGHFVI [candidate antigen for HLA-B*14:02, outlier]”, the “HLA binding activity (in words)” value is listed as “high binding affinity” and the “Binding Test (binding activity as percentage of positive control)” value was 61.2%.

With “QVWGTLTSL [candidate antigen for HLA-B*14:02, non-outlier]”, the “Binding Test (binding activity as percentage of positive control)” value worked out at 0.1%. Same read-out and setting: for “SQYQRLLCI [candidate antigen for HLA-B*14:02, non-outlier]” the value was 80.3%; for “ETASDLLLHSAL [candidate antigen for HLA-B*14:02, non-outlier]”, 59.3%. The same measure, in the same setting: then “DNAVHCVI [candidate antigen for HLA-B*14:02, non-outlier]”, with 26.2%.

On to “IRLENEIQ [candidate antigen for HLA-B*14:02, non-outlier]”, for which the “Binding Test (binding activity as percentage of positive control)” value was determined as 0.1%. On the same count and under the same terms, then “SSSKGSLGGGF [candidate antigen for HLA-B*14:02, non-outlier]”, with 0.2%; and “VAPGKDLTK [candidate antigen for HLA-B*14:02, non-outlier]”, with 0%. The same measure, in the same setting: then “IHTLVESL [candidate antigen for HLA-B*14:02, non-outlier]”, with 0.2%; and “AQGGVLPNI [candidate antigen for HLA-B*14:02, outlier]”, with 0.2%. The same measure, in the same setting: then “FGYSRHTPF [candidate antigen for HLA-B*14:02, non-outlier]”, with 24.8%.

For “DLPEHAVL [candidate antigen for HLA-B*14:02, non-outlier]”, the “Binding Test (binding activity as percentage of positive control)” value came to 14.2%. Still for that read-out and setting: then “QQGTHLSL [candidate antigen for HLA-B*14:02, non-outlier]”, with 47.7%. Take “SRLDSVLLL [candidate antigen for HLA-B*14:02, non-outlier]”: the “Binding Test (binding activity as percentage of positive control)” value is on record as 43.9%.
